Assay results from PubChem BioAssay AID192 (DTP/NCI, 2004).
Values joined by “and” are separate entries in the source; they are usually repeats but may differ in a detail not shown here. Identical values can stand only once. Toxic doses and inconclusive results are not listed. Rule for the calls: active = survival T/C of 150% or more; inactive = T/C below 125% in these data.

Test system: BDF1 mice, B16 melanoma ip, median survival T/C
Assay: NCI In Vivo Anticancer Drug Screen. Data for tumor model B16 Melanoma (intraperitoneal) in B6D2F1 (BDF1) mice
Conditions: endpoint: median survival time, higher = longer survival
Procedure: The antitumor activity of compounds was measured in mice bearing transplantable tumors. Survival or tumor size were measured and the results are expressed as the measurement made in the treated group (T) divided by the measurement made in the vehicle treated control group (C). The tumor model used in this assay is B16 Melanoma (intraperitoneal) in B6D2F1 (BDF1) mice

[1] = dose: 100.0 mg/kg/injection, schedule: Q01DX009 (ip), vehicle: saline with Tween-80
[2] = dose: 100.0 mg/kg/injection, schedule: Q04DX003 (ip), vehicle: saline with Tween-80
[3] = dose: 200.0 mg/kg/injection, schedule: Q01DX009 (ip), vehicle: saline with Tween-80
[4] = dose: 200.0 mg/kg/injection, schedule: Q04DX003 (ip), vehicle: saline with Tween-80
[5] = dose: 400.0 mg/kg/injection, schedule: Q01DX009 (ip), vehicle: saline with Tween-80
[6] = dose: 400.0 mg/kg/injection, schedule: Q04DX003 (ip), vehicle: saline with Tween-80
[7] = dose: 25.0 mg/kg/injection, schedule: Q01DX009 (ip), vehicle: saline with Tween-80
[8] = dose: 50.0 mg/kg/injection, schedule: Q01DX009 (ip), vehicle: saline with Tween-80
[9] = dose: 0.25 mg/kg/injection, schedule: Q01DX009 (ip), vehicle: saline

Measured: T/C

CC(Br)C(=O)NC(CO)C(=O)O (configuration not stated)
inactive: [1] 94 % of control | [2] 108 % of control | [3] 99 % of control | [4] 113 % of control | [5] 86 % of control | [6] 108 % of control

Cc1ccc(C(C)(N=[N+]=[N-])c2ccccc2)cc1C (configuration not stated)
inactive: [7] 94 % of control | [8] 93 % of control | [1] 90 % of control | [3] 90 % of control

CCCCCCCCCCCCCCCCOc1ccc(C(=O)CC(=O)OC)cc1
inactive: dose: 100.0 mg/kg/injection, schedule: Q01DX009 (ip), vehicle: Klucel (hydroxypropylcellulose) (HPC) 105 % of control | dose: 200.0 mg/kg/injection, schedule: Q01DX009 (ip), vehicle: Klucel (hydroxypropylcellulose) (HPC) 94 % of control

OC(C1CO1)C(O)C1CO1 (configuration not stated)
inactive: dose: 0.12 mg/kg/injection, schedule: Q01DX009 (ip), vehicle: saline 118 % of control | dose: 0.13 mg/kg/injection, schedule: Q03HX024 (ip), vehicle: saline 114 % of control | [9] 104 % of control and 107 % of control and 110 % of control | dose: 0.25 mg/kg/injection, schedule: Q03HX008 (ip), vehicle: saline 123 % of control | dose: 0.25 mg/kg/injection, schedule: Q03HX016 (ip), vehicle: saline 120 % of control | dose: 0.5 mg/kg/injection, schedule: Q01DX005 (ip), vehicle: saline 113 % of control | dose: 0.5 mg/kg/injection, schedule: Q03HX008 (ip), vehicle: saline 120 % of control | dose: 1.0 mg/kg/injection, schedule: Q01DX005 (ip), vehicle: saline 119 % of control
active: dose: 1.0 mg/kg/injection, schedule: Q03HX016 (ip), vehicle: saline 152 % of control | dose: 1.0 mg/kg/injection, schedule: Q03HX024 (ip), vehicle: saline 172 % of control | dose: 2.0 mg/kg/injection, schedule: Q01DX005 (ip), vehicle: saline 153 % of control | dose: 2.0 mg/kg/injection, schedule: Q03HX008 (ip), vehicle: saline 160 % of control | dose: 2.0 mg/kg/injection, schedule: Q03HX016 (ip), vehicle: saline 214 % of control | dose: 4.0 mg/kg/injection, schedule: Q01DX001 (ip), vehicle: saline 158 % of control | dose: 4.0 mg/kg/injection, schedule: Q01DX005 (ip), vehicle: saline 192 % of control | dose: 4.0 mg/kg/injection, schedule: Q01DX009 (ip), vehicle: saline sonified 184 % of control | dose: 4.0 mg/kg/injection, schedule: Q08DX002 (ip), vehicle: saline 158 % of control | dose: 8.0 mg/kg/injection, schedule: Q01DX001 (ip), vehicle: saline 204 % of control | dose: 8.0 mg/kg/injection, schedule: Q04DX003 (ip), vehicle: saline 171 % of control | dose: 8.0 mg/kg/injection, schedule: Q08DX002 (ip), vehicle: saline 208 % of control

NC(Cc1ccc(O)cc1)C(=O)O (configuration not stated)
inactive: [1] 110 % of control | [2] 107 % of control | [3] 87 % of control | [4] 104 % of control | [5] 90 % of control | [6] 104 % of control

CC[C@](C)(O)C(=O)O[C@H]1C(=O)O[C@@H]2C[C@H]3C(C)=CC(=O)[C@@H](O)[C@]3(C)[C@H]3[C@@]4(O)OC[C@]32[C@@H]1[C@@H](C)[C@H]4O
inactive: dose: 0.13 mg/kg/injection, schedule: Q01DX009 (ip), vehicle: Klucel (hydroxypropylcellulose) (HPC) 110 % of control | dose: 0.13 mg/kg/injection, schedule: Q01DX009 (ip), vehicle: steriod suspending solution 108 % of control | dose: 0.25 mg/kg/injection, schedule: Q01DX009 (ip), vehicle: Klucel (hydroxypropylcellulose) (HPC) 107 % of control | [9] 121 % of control | dose: 0.25 mg/kg/injection, schedule: Q01DX009 (ip), vehicle: steriod suspending solution 122 % of control | dose: 0.5 mg/kg/injection, schedule: Q01DX009 (ip), vehicle: Klucel (hydroxypropylcellulose) (HPC) 114 % of control | dose: 1.0 mg/kg/injection, schedule: Q01DX009 (ip), vehicle: steriod suspending solution 114 % of control | dose: 125.0 micrograms/kg/injection, schedule: Q01DX009 (ip), vehicle: saline with Tween-80 121 % of control | dose: 250.0 micrograms/kg/injection, schedule: Q01DX009 (ip), vehicle: saline with Tween-80 112 % of control | dose: 500.0 micrograms/kg/injection, schedule: Q01DX009 (ip), vehicle: saline with Tween-80 121 % of control
active: dose: 0.5 mg/kg/injection, schedule: Q01DX009 (ip), vehicle: saline 154 % of control

CCNCC#CCNCC
inactive: dose: 50.0 mg/kg/injection, schedule: Q01DX009 (ip), vehicle: saline 107 % of control | dose: 100.0 mg/kg/injection, schedule: Q01DX009 (ip), vehicle: saline 94 % of control

CN1CCC23c4ccccc4NC1C21CCN(C)C3Nc2ccccc21
inactive: dose: 1.87 mg/kg/injection, schedule: Q01DX009 (ip), vehicle: saline 107 % of control | dose: 3.75 mg/kg/injection, schedule: Q01DX009 (ip), vehicle: saline 107 % of control | dose: 7.5 mg/kg/injection, schedule: Q01DX009 (ip), vehicle: saline 109 % of control

O=S(=O)(O)CNc1ccccc1
inactive: dose: 100.0 mg/kg/injection, schedule: Q04DX003 (ip), vehicle: saline 104 % of control | dose: 200.0 mg/kg/injection, schedule: Q04DX003 (ip), vehicle: saline 97 % of control | dose: 400.0 mg/kg/injection, schedule: Q04DX003 (ip), vehicle: saline 106 % of control

CN1C(=O)CC2(CCN(CCCC(=O)c3ccc(F)cc3)CC2)C1=O
inactive: dose: 6.25 mg/kg/injection, schedule: Q01DX009 (ip), vehicle: saline with Tween-80 99 % of control | dose: 12.5 mg/kg/injection, schedule: Q01DX009 (ip), vehicle: saline with Tween-80 109 % of control | [7] 104 % of control | [8] 95 % of control

CCC1=C[C@H]2CN(CCc3c([nH]c4ccccc34)[C@@](C(=O)OC)(c3cc4c(cc3OC)N(C)[C@H]3[C@@](O)(C(=O)NC)[C@H](OC(C)=O)[C@]5(CC)C=CCN6CC[C@]43[C@@H]65)C2)C1
inactive: dose: 0.05 mg/kg/injection, schedule: Q01DX009 (ip), vehicle: Klucel (hydroxypropylcellulose) (HPC) 119 % of control | dose: 0.1 mg/kg/injection, schedule: Q01DX009 (ip), vehicle: Klucel (hydroxypropylcellulose) (HPC) 113 % of control | dose: 0.12 mg/kg/injection, schedule: Q04DX003 (ip), vehicle: water 123 % of control | dose: 0.2 mg/kg/injection, schedule: Q01DX009 (ip), vehicle: Klucel (hydroxypropylcellulose) (HPC) 124 % of control
active: dose: 0.06 mg/kg/injection, schedule: Q01DX009 (ip), vehicle: water 156 % of control | dose: 0.12 mg/kg/injection, schedule: Q01DX009 (ip), vehicle: water 160 % of control and 183 % of control | dose: 0.25 mg/kg/injection, schedule: Q01DX009 (ip), vehicle: water 181 % of control and 220 % of control | dose: 0.5 mg/kg/injection, schedule: Q01DX009 (ip), vehicle: water 157 % of control | dose: 0.5 mg/kg/injection, schedule: Q04DX003 (ip), vehicle: water 156 % of control | dose: 1.6 mg/kg/injection, schedule: Q01DX009 (ip), vehicle: Klucel (hydroxypropylcellulose) (HPC) 181 % of control

O=[N+]([O-])c1ccc2scc3c4ccccc4nc-3c2c1
inactive: dose: 6.25 mg/kg/injection, schedule: Q01DX009 (ip), vehicle: saline 90 % of control | dose: 12.5 mg/kg/injection, schedule: Q01DX009 (ip), vehicle: saline 99 % of control

NCc1c(Cl)c(Cl)c(CN)c(Cl)c1Cl
inactive: [7] 100 % of control | [8] 102 % of control | [1] 100 % of control

Clc1cccc(/C=C2\c3cc(Cl)ccc3-c3c(Cl)cc(Cl)cc32)c1
inactive: [3] 100 % of control | [5] 97 % of control | dose: 800.0 mg/kg/injection, schedule: Q01DX009 (ip), vehicle: saline with Tween-80 93 % of control

C=CCc1cccc(OC)c1OCCN(CC)CC
inactive: dose: 5.0 mg/kg/injection, schedule: Q01DX009 (ip), vehicle: saline with Tween-80 88 % of control | dose: 10.0 mg/kg/injection, schedule: Q01DX009 (ip), vehicle: saline with Tween-80 100 % of control | dose: 20.0 mg/kg/injection, schedule: Q01DX009 (ip), vehicle: saline with Tween-80 100 % of control
